Results published in patent US6384026B1, “Macrocyclic polyamine lactones and derivatives thereof and their use as arthropod repellents” (Cornell Research Foundation, Inc., priority 1998, dated 2002).

How the values were obtained:
[1] = Isomerization (O-to-N acyl transfer) on storage, analysed by HPLC-MS; type: physicochemical; settings: substantially pure samples stored at 25° C. for 2 days
[2] = system: ladybird beetles (Harmonia axyridis); assay: Deterrency bioassays with predacious insects: ladybird beetles; type: in vivo; settings: synthetic samples
Excerpt: (§1) Synthetic samples of macrocycles PAML 681, PAML 908, and PAML 1362 (structure 6 of FIG. 3, wherein m, n, o, p, q, and r=7) as well as mixtures of synthetic PAML 681 and Vitamin E acetate were used in bioassays with various predacious insects, for example, ladybird beetles (Harmonia axyridis) and ants of the genus Crematogaster.

H. axyridis adults = assay: Feeding choice bioassay with ladybird beetle (treated vs control moth eggs); type: in vivo, Harmonia axyridis; settings: choice test, moth eggs treated topically with ethyl ether solution vs ethyl ether only
Method: The biological activity of synthetic PAML 681 was also evaluated in a feeding bioassay with a ladybird beetle. The bioassay was a choice test in which individual H. axyridis adults were presented with two offerings of an edible food item, for example, insect eggs of the moth Uthesisia ornatrix, of which one offering was treated by topical application of an ethyl ether solution of PAML 681, while the other offering (“control”) was treated with ethyl ether only. […] Similar experiments were performed with synthetic samples of PAML 908 and PAML 1362, as well as with mixtures of PAML 681 and alpha-tocopherol acetate.

[3] = system: ants of the genus Crematogaster; assay: Deterrency bioassays with predacious insects: ants; type: in vivo; settings: synthetic samples
Excerpt: as §1

beetles (Carabidae) = assay: Feeding tests with beetles (Carabidae); type: in vivo
[4] = system: Periplaneta americana (American cockroach); assay: Irritancy tests with cockroaches; type: in vivo
ants = assay: Tests with ants on pupal secretion and its tocopherol components; type: in vivo, Crematogaster cerasi; settings: E. borealis pupal secretion and components

SMILES | monoamide formed (relative percentage of the total ion current) [1] | activity as insect deterrent [2] | antifeedant activity (H. axyridis adults) | activity as insect deterrent [3] | insect repellent and deterrent activity (beetles (Carabidae)) | insect repellent and deterrent activity (irritancy) [4] | deterrency in tests with ants (ants)
CC1CCCCCCCCC(=O)OCCNC(C)CCCCCCCCC(=O)OCCNC(C)CCCCCCCCC(=O)OCCNC(C)CCCCCCCCC(=O)OCCN1 (centres unmarked) [PAML 908] | 10% | highly active as insect deterrents | strong antifeedant activity | highly active as insect deterrents | – | – | –
CC1CCCCCCCCC(=O)OCCNC(C)CCCCCCCCC(=O)OCCNC(C)CCCCCCCCC(=O)OCCN1 (centres unmarked) [PAML 681] | 7% | highly active as insect deterrents | strong antifeedant activity | highly active as insect deterrents | strong insect repellent and deterrent | strong insect repellent and deterrent | –
CC(=O)Oc1c(C)c(C)c2c(c1C)CCC(C)(CCC[C@H](C)CCC[C@H](C)CCCC(C)C)O2 (some centres unmarked) [vitamin E acetate, Vitamin E acetate] | – | – | – | – | – | – | essentially inactive
